These results are taken from BindingDB's records for doi:10.1016/0006-8993(88)90805-0 (Veterans Administration Medical Center, 1988).

This assay addresses Sodium-dependent serotonin transporter (Rattus norvegicus, UniProt P31652).

Sequence of Sodium-dependent serotonin transporter (P31652 whole entry): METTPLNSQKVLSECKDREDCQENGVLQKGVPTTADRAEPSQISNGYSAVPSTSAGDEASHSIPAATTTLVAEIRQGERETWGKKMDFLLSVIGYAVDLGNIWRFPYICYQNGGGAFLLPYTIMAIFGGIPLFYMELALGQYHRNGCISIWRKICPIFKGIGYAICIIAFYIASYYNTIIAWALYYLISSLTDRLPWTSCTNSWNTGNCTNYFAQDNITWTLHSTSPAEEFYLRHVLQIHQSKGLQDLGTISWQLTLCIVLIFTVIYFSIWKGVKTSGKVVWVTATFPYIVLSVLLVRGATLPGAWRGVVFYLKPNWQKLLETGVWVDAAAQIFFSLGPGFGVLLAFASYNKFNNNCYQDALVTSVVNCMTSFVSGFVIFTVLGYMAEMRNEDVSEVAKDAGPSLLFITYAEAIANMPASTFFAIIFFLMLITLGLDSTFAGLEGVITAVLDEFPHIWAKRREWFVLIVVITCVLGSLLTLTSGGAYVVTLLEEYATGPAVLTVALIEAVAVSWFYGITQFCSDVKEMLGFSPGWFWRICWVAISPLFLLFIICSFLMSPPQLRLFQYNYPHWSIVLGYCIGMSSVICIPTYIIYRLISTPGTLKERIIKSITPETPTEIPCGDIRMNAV

A word on the Ki: it is the dissociation constant of the complex between target and ligand, obtained from inhibition or displacement. A lower Ki goes with tighter binding. Compound `CC[C@@H](CO)NC(=O)[C@@H]1C=C2c3cccc4c3c(cn4C)C[C@H]2N(C)C1` had an inhibitory constant (Ki) of 3.7 µM. This counts as single-digit micromolar.
